Test results as given in US10457654B2 (GENENTECH, INC., priority 2017, dated 2019).
Counter-ions that a name gives are not always drawn.

Experiments:
hNav1.7 [1] = target: T1, hNav1.7 (Homo sapiens (Human), UniProt Q15858); assay: Tritiated compound binding to membranes from cells expressing hNav1.7 and the β1 subunit, modified protocol (LBA, Ex. 243B); conditions: 300 pM [3H]compound, room temperature, read-out: Nav1.7 LBA (Ex. 243B) IC50
Target sequence in this assay (Q15858 whole entry, looked up): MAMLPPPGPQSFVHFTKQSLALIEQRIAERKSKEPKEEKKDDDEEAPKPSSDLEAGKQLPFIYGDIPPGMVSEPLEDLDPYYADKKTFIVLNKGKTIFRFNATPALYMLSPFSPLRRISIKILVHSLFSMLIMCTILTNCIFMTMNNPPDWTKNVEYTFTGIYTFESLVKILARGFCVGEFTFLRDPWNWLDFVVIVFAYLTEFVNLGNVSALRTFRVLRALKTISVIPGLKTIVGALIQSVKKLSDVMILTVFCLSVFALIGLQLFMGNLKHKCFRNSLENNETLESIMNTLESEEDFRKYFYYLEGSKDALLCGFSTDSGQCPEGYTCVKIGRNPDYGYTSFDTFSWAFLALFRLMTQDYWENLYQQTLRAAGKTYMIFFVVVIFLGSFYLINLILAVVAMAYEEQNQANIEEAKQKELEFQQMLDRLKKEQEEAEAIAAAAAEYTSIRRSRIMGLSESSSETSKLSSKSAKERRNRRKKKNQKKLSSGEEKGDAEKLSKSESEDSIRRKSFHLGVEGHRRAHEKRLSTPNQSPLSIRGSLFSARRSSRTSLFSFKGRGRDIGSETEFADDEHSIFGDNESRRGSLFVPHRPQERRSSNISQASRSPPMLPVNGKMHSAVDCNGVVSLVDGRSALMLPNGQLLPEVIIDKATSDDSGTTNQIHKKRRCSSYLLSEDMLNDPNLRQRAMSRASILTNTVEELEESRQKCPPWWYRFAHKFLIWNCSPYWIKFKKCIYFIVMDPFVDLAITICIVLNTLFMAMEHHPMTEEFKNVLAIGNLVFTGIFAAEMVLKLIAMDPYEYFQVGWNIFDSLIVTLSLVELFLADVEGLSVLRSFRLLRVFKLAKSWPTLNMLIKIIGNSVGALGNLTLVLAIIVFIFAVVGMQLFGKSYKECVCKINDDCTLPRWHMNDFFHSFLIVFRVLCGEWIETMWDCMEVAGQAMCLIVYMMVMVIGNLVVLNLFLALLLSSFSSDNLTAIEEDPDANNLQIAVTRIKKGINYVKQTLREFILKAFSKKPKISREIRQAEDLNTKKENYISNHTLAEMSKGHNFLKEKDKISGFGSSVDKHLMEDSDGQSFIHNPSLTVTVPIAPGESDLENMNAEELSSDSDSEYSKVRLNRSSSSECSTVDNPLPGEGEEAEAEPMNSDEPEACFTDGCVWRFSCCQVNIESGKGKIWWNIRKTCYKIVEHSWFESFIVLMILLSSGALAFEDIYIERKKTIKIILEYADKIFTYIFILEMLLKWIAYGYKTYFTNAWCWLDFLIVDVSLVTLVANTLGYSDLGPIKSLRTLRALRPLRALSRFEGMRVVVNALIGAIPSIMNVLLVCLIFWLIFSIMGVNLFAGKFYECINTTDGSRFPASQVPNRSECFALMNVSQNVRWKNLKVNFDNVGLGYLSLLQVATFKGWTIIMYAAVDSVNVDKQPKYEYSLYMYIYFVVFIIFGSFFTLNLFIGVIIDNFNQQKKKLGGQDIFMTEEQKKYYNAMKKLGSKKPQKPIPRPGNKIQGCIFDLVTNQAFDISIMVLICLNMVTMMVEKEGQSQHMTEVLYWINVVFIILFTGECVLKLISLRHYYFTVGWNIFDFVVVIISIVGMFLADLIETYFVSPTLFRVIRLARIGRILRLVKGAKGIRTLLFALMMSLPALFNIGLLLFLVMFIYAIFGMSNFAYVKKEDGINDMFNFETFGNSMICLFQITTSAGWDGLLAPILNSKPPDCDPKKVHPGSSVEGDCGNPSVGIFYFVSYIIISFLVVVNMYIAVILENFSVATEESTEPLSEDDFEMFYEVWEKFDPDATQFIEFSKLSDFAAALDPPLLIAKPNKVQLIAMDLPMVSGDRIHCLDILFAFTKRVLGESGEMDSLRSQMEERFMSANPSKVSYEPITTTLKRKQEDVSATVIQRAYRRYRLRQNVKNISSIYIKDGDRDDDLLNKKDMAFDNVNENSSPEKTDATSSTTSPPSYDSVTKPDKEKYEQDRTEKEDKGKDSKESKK
Target sequence in this assay (Q07699 whole entry partner, looked up): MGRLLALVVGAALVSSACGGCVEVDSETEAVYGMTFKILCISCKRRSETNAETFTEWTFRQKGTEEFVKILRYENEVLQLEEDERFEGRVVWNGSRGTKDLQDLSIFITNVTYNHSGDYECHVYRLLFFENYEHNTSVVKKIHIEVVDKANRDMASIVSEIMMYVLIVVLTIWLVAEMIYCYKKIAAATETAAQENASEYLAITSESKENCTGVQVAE

hNav1.7 [2] = target: T1, hNav1.7; assay: Patch voltage clamp electrophysiology assay (EP), Syncropatch 384PE, CHO cells expressing Nav1.7; format: cell-based; conditions: holding potential -50 mV; […] compound incubation; read-out: EP_SP hNav1.7 (Ex. 243B) IC50
Outline: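 Automated whole-cell patch clamp on CHO cells stably expressing human Nav1.7, CsCl/EGTA internal and NMDG/80 mM Na+ external (pH 7.4). From −50 mV holding, −10 mV step, 20 ms recovery at −150 mV, then second −10 mV pulse where block is measured; inhibition after 7.5 min compound incubation.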
Target sequence in this assay (Q15858 other isoform, or with tags, fused parts or gaps): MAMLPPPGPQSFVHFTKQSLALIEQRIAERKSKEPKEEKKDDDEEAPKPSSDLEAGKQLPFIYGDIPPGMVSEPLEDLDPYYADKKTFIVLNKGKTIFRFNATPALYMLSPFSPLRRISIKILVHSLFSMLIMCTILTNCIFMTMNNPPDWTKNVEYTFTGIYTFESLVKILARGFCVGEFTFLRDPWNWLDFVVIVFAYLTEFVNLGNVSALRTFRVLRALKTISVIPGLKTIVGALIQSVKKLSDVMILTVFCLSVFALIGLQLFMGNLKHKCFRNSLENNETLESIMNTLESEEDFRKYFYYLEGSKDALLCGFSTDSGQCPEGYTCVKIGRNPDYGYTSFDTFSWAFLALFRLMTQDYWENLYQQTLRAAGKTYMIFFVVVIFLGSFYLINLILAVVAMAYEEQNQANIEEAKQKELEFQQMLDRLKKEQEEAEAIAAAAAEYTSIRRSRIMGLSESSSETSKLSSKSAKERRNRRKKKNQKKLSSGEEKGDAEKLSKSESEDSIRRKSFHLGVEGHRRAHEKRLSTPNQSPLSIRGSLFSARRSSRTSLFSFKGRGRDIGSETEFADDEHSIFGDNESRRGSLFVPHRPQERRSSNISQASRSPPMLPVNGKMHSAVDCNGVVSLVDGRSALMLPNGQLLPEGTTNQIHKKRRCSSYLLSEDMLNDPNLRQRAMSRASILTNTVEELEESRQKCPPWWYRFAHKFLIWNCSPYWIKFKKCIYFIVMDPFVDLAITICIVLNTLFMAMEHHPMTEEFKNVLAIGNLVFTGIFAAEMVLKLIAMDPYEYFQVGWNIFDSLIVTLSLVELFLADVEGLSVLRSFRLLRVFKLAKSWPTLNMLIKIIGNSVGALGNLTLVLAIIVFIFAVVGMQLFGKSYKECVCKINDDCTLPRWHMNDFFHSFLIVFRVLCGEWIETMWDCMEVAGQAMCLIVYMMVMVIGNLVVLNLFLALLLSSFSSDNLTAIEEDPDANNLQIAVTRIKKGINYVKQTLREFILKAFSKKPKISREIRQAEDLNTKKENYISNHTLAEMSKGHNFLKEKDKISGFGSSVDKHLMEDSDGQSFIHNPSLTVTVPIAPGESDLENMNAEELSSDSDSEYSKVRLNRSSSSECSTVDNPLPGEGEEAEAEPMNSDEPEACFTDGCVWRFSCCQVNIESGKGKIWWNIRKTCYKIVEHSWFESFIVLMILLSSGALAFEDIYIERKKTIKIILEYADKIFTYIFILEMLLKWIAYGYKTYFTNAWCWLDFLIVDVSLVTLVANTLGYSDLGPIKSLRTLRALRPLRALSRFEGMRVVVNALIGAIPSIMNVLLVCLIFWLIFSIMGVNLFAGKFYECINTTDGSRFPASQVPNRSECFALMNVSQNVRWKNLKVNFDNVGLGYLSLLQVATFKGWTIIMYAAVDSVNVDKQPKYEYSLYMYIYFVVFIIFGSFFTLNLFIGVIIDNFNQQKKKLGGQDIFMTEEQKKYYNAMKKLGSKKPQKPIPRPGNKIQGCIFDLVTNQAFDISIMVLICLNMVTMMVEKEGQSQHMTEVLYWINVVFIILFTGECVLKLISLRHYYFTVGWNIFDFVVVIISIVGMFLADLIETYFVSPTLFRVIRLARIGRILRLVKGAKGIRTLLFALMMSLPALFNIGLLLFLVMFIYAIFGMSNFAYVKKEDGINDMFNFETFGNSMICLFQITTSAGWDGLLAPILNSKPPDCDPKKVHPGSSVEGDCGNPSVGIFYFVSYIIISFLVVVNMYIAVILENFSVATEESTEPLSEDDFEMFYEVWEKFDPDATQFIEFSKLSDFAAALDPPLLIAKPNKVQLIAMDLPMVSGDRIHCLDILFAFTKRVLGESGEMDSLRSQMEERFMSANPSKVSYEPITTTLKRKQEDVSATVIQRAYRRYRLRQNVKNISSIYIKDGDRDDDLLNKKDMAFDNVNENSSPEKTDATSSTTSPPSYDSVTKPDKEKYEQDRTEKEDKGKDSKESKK

## CN(C)CC(=O)N(C)[C@H]1CCCC[C@@H]1Nc1cc(F)c(S(=O)(=O)Nc2nccs2)cc1Cl [Example 167, N-((1S,2S)-2-((2-chloro-5-fluoro-4-(N-(thiazol-2-yl)sulfamoyl)phenyl)amino)cyclohexyl)-2-(dimethylamino)-N-methylacetamide]
hNav1.7 [1]
  IC50: 91.7 nM
hNav1.7 [2]
  IC50: 18.7 nM

## O=S(=O)(Nc1nccs1)c1cc(Cl)c(N[C@H]2CCCC[C@@H]2N2CCC[C@H](CO)C2)cc1F [Example 168, 5-chloro-2-fluoro-4-(((1S,2S)-2-((S)-3-(hydroxymethyl)piperidin-1-yl)cyclohexyl)amino)-N-(thiazol-2-yl)benzenesulfonamide formate]
hNav1.7 [1]
  IC50: 40 nM
hNav1.7 [2]
  IC50: 5.16 nM

## O=S(=O)(Nc1nccs1)c1cc(Cl)c(N[C@H]2CCCC[C@@H]2N2CCC[C@@H](CO)C2)cc1F [Example 169, 5-chloro-2-fluoro-4-(((1S,2S)-2-((R)-3-(hydroxymethyl)piperidin-1-yl)cyclohexyl)amino)-N-(thiazol-2-yl)benzenesulfonamide formate]
hNav1.7 [1]
  IC50: 7.56 nM
hNav1.7 [2]
  IC50: 3.34 nM

## CN(C1CNC1)[C@H]1C[C@@H](C(F)(F)F)CC[C@@H]1Nc1cc(F)c(S(=O)(=O)Nc2cccc(F)n2)cc1Cl [Example 170, 4-(((1S,2S,4S)-2-(azetidin-3-yl(methyl)amino)-4-(trifluoromethyl)cyclohexyl)amino)-5-chloro-2-fluoro-N-(6-fluoropyridin-2-yl)benzenesulfonamide]
hNav1.7 [1]
  IC50: 2.92 nM
hNav1.7 [2]
  IC50: 3.68 nM

## Cc1csc(NS(=O)(=O)c2cc(Cl)c(N[C@H]3CC[C@H](C(F)(F)F)C[C@@H]3N(C)C)cc2F)n1 [Example 171, 5-chloro-4-(((1S,2S,4S)-2-(dimethylamino)-4-(trifluoromethyl)cyclohexyl)amino)-2-fluoro-N-(4-methylthiazol-2-yl)benzenesulfonamide formate]
hNav1.7 [1]
  IC50: 255 nM
hNav1.7 [2]
  IC50: 12.2 nM

## Cc1nc(NS(=O)(=O)c2cc(Cl)c(N[C@H]3CCCC[C@@H]3N(C)C)cc2F)sc1Cl [Example 172, 5-Chloro-N-(5-chloro-4-methylthiazol-2-yl)-4-(((1S,2S)-2-(dimethylamino)cyclohexyl)amino)-2-fluorobenzenesulfonamide]
hNav1.7 [1]
  IC50: 38.2 nM
hNav1.7 [2]
  IC50: 12.3 nM

## CN(C1CN(CC(F)(F)F)C1)[C@H]1CCCC[C@@H]1Nc1cc(F)c(S(=O)(=O)Nc2nccs2)cc1Cl [Example 175, 5-Chloro-2-fluoro-4-(((1S,2S)-2-(methyl(1-(2,2,2-trifluoroethyl)azetidin-3-yl)amino)cyclohexyl)amino)-N-(thiazol-2-yl)benzenesulfonamide]
hNav1.7 [1]
  IC50: 316 nM
hNav1.7 [2]
  IC50: 21.7 nM

## N#C[C@@H]1CCCN([C@H]2CCCC[C@@H]2Nc2cc(F)c(S(=O)(=O)Nc3nccs3)cc2Cl)C1 [Example 176, 5-Chloro-4-(((1S,2S)-2-((R)-3-cyanopiperidin-1-yl)cyclohexyl)amino)-2-fluoro-N-(thiazol-2-yl)benzenesulfonamide]
hNav1.7 [1]
  IC50: 491 nM
hNav1.7 [2]
  IC50: 8.72 nM

## N#C[C@H]1CCCN([C@H]2CCCC[C@@H]2Nc2cc(F)c(S(=O)(=O)Nc3nccs3)cc2Cl)C1 [Example 177, 5-chloro-4-(((1S,2S)-2-((S)-3-cyanopiperidin-1-yl)cyclohexyl)amino)-2-fluoro-N-(thiazol-2-yl)benzenesulfonamide]
hNav1.7 [1]
  IC50: 60.9 nM
hNav1.7 [2]
  IC50: 2.91 nM

## CN(C)[C@H]1C[C@@H](C(F)(F)F)CC[C@@H]1Nc1cc(F)c(S(=O)(=O)Nc2ccncn2)cc1C1CC1 [Example 178, 5-cyclopropyl-4-(((1S,2S,4S)-2-(dimethylamino)-4-(trifluoromethyl)cyclohexyl)amino)-2-fluoro-N-(pyrimidin-4-yl)benzenesulfonamide]
hNav1.7 [1]
  IC50: 205 nM
hNav1.7 [2]
  IC50: 19.1 nM

## CN1CC(C(=O)N(C)[C@H]2CCCC[C@@H]2Nc2cc(F)c(S(=O)(=O)Nc3nccs3)cc2Cl)C1 [Example 179, N-((1S,2S)-2-((2-Chloro-5-fluoro-4-(N-(thiazol-2-yl)sulfamoyl)phenyl)amino)cyclohexyl)-N,1-dimethylazetidine-3-carboxamide]
hNav1.7 [1]
  IC50: 270 nM
hNav1.7 [2]
  IC50: 6.83 nM

## CN(C1CCC1)[C@H]1C[C@@H](C(F)(F)F)CC[C@@H]1Nc1cc(F)c(S(=O)(=O)Nc2ccncn2)cc1Cl [Example 180, 5-chloro-4-(((1S,2S,4S)-2-(cyclobutyl(methyl)amino)-4-(trifluoromethyl)cyclohexyl)amino)-2-fluoro-N-(pyrimidin-4-yl)benzenesulfonamide]
hNav1.7 [1]
  IC50: 666 nM
hNav1.7 [2]
  IC50: 49.5 nM

## CN(C)[C@H]1C[C@@H](c2cccc(C(F)(F)F)c2)CC[C@@H]1Nc1cc(F)c(S(=O)(=O)Nc2ccncn2)cc1Cl [Example 181, 5-chloro-4-[[(1S,2S,4S)-2-(dimethylamino)-4-[3-(trifluoromethyl)phenyl]cyclohexyl]amino]-2-fluoro-N-pyrimidin-4-yl-benzenesulfonamide]
hNav1.7 [1]
  IC50: 1.31 nM
hNav1.7 [2]
  IC50: 0.783 nM

## O=S(=O)(Nc1ccncn1)c1cc(Cl)c(N[C@@H]2CCCC[C@H]2N2CC3C(C2)C3(F)F)cc1F (stereo partly drawn) [Example 182, 5-chloro-4-(((1R,2R)-2-(6,6-difluoro-3-azabicyclo[3.1.0]hexan-3-yl)cyclohexyl)amino)-2-fluoro-N-(pyrimidin-4-yl)benzenesulfonamide]
hNav1.7 [1]
  IC50: 2000 nM
hNav1.7 [2]
  IC50: 1520 nM

## O=S(=O)(Nc1ccncn1)c1cc(Cl)c(N[C@H]2CCCC[C@@H]2N2CC3C(C2)C3(F)F)cc1F (stereo partly drawn) [Example 183, 5-chloro-4-(((1S,2S)-2-(6,6-difluoro-3-azabicyclo[3.1.0]hexan-3-yl)cyclohexyl)amino)-2-fluoro-N-(pyrimidin-4-yl)benzenesulfonamide]
hNav1.7 [1]
  IC50: 277 nM
hNav1.7 [2]
  IC50: 12 nM

## O=S(=O)(Nc1cccc(F)n1)c1cc(Cl)c(N[C@@H]2CCCC[C@H]2N2C[C@@H]3[C@@H](CO)[C@@H]3C2)cc1F [Example 184]
hNav1.7 [1]
  IC50: 2000 nM
hNav1.7 [2]
  IC50: 4960 nM

## O=S(=O)(Nc1cccc(F)n1)c1cc(Cl)c(N[C@H]2CCCC[C@@H]2N2C[C@@H]3[C@@H](CO)[C@@H]3C2)cc1F [Example 185]
hNav1.7 [1]
  IC50: 771 nM
hNav1.7 [2]
  IC50: 36.2 nM

## CN(C)[C@H]1CC(F)(F)CC[C@@H]1Nc1cc(F)c(S(=O)(=O)Nc2nccs2)cc1Cl [Example 187, 5-chloro-4-(((1S,2S)-2-(dimethylamino)-4,4-difluorocyclohexyl)amino)-2-fluoro-N-(thiazol-2-yl)benzenesulfonamide formate]
hNav1.7 [1]
  IC50: 776 nM
hNav1.7 [2]
  IC50: 7.65 nM

## CN(C)[C@@H]1CC(F)(F)CC[C@H]1Nc1cc(F)c(S(=O)(=O)Nc2nccs2)cc1Cl [Example 188, 5-chloro-4-(((1R,2R)-2-(dimethylamino)-4,4-difluorocyclohexyl)amino)-2-fluoro-N-(thiazol-2-yl)benzenesulfonamide formate]
hNav1.7 [1]
  IC50: 2000 nM
hNav1.7 [2]
  IC50: 684 nM

## CN1CC(N(CC(F)(F)F)[C@H]2CCCC[C@@H]2Nc2cc(F)c(S(=O)(=O)Nc3nccs3)cc2Cl)C1 [Example 190, 5-Chloro-2-fluoro-4-(((1S,2S)-2-((1-methylazetidin-3-yl)(2,2,2-trifluoroethyl)amino)cyclohexyl)amino)-N-(thiazol-2-yl)benzenesulfonamide]
hNav1.7 [1]
  IC50: 478 nM
hNav1.7 [2]
  IC50: 41.5 nM

## CN(C)[C@H]1CCC(F)C[C@@H]1Nc1cc(F)c(S(=O)(=O)Nc2nccs2)cc1Cl (stereo partly drawn) [Example 191, 5-chloro-4-(((1S,2S)-2-(dimethylamino)-5-fluorocyclohexyl)amino)-2-fluoro-N-(thiazol-2-yl)benzenesulfonamide formate]
hNav1.7 [1]
  IC50: 777 nM
hNav1.7 [2]
  IC50: 39.4 nM
